Results as given in patent US4943566A, “Novel 17-aryl-steroids” (Roussel Uclafi, priority 1987, dated 1990).

What was measured:
[1] = target: T1, glucocorticoid receptor, rat thymus (Rattus norvegicus, UniProt P06536); assay: Relative binding affinity (ARL), glucocorticoid receptor of rat thymus; settings: rat thymus cytosol, tritiated dexamethasone, cold reference dexamethasone; for relative affinity of the bond (ARL), Glucocorticoid, 2H: incubation 2H at 0° C.; for relative affinity of the bond (ARL), Glucocorticoid, 24H: incubation 24H at 0° C.
T1 construct: The second test was a glucocrticoid receptor test on rat thymus; from tissue; host or cells: thymus of adrenalectomized male Sprague Dawley EOPS rats, 105,000 g supernatant (cytosol)
T1 sequence (P06536 1-795): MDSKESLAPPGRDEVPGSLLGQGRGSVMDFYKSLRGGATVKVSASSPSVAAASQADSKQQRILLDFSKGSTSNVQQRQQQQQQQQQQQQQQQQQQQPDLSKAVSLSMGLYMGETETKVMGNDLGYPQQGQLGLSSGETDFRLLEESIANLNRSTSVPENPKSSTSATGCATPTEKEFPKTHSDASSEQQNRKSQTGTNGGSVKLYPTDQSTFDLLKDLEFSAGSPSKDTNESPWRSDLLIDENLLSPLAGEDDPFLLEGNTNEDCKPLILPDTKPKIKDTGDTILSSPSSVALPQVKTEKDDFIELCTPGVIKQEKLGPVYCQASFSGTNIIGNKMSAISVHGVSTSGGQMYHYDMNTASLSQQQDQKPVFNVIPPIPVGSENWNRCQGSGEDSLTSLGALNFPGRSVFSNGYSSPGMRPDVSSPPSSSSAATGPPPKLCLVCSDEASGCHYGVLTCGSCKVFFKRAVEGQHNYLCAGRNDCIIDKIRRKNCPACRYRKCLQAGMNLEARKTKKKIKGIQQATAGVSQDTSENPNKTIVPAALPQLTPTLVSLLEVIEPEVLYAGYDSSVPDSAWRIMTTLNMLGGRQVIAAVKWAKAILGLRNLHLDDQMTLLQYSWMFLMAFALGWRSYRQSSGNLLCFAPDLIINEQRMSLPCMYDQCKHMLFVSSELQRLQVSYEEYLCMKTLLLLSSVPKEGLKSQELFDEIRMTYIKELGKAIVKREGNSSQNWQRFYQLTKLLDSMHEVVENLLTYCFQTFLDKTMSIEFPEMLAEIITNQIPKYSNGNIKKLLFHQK
Protocol: The second test was a glucocrticoid receptor test on rat thymus in which male rats of the Sprague Dawley EOPS strain weighing 160 to 200 g were surrenalectomized. 4 to 8 days after this ablation, the animals were killed and the thymus was removed and homogenized at 0° C. in a buffered TS solution. (Tris 10 mM, 0.25M saccharose, 2 mM dithiothreitol, HCl pH 7.4) with a Potter tetrafluoroethylene-glass (1 g of tissue per 10 ml/TS). The homogenate was ultracentrifuged at 105,000 for 90 minutes at 0° C. and the surnageant samples were incubated at 0° C. for a time t with a constant concentration T of tritiated dexamethasone in the presence of increasing concentrations (0-2500×10^-9 M) or cold dexamethasone or cold test compound. The concentration B of bound tritiated dexamethasone was measured for each incubate by carbon-dextran absorption technique.
(§1) The relative affinity of the bond (ARL) was calculated in the same for the receptors. One traced the following 2 curves: the percentage of bond tritiated hormone B/T as a logarithmic function of the concentration of the cold reference hormone and B/T as a logarithmic function of the concentration of the cold test compound. Using the equation [formula] B/T max.=% of bound tritiated hormone for one incubation of tritiated hormone at concentration (T)
(§2) B/T min.=% of bound tritiated hormone for one incubation of tritiated hormone at a concentration T in the presence of a great excess of cold hormone (2500×10^-9 M).
(§3) The intersections of I50 lines and the curves permit an evaluation of the hormone concentration of the cold reference (CH) and the cold test compound (CX) which inhibited by 50% the bounding of tritiated hormone to the receptor. The ARL of the test compound was determined by the equation. [formula] and the following results were obtained.

[2] = target: T2, progesterone receptors of rabbit uterus (Oryctolagus cuniculus, UniProt P06186); assay: Relative binding affinity (ARL), progesterone receptors of rabbit uterus; settings: rabbit uterus cytosol, tritiated 17,21-dimethyl-19-nor-Δ4,9-pregnadiene-3,20-dione, cold reference hormone progesterone; for relative affinity of the bond (ARL), Progestogen, 2H: incubation 2H at 0° C.; for relative affinity of the bond (ARL), Progestogen, 24H: incubation 24H at 0° C.
T2 construct: The first test was on the progesterone receptors of rabbit uterus; from tissue; host or cells: uterus of estradiol-treated immature rabbits, 105,000 g supernatant (cytosol)
T2 sequence (P06186 1-930): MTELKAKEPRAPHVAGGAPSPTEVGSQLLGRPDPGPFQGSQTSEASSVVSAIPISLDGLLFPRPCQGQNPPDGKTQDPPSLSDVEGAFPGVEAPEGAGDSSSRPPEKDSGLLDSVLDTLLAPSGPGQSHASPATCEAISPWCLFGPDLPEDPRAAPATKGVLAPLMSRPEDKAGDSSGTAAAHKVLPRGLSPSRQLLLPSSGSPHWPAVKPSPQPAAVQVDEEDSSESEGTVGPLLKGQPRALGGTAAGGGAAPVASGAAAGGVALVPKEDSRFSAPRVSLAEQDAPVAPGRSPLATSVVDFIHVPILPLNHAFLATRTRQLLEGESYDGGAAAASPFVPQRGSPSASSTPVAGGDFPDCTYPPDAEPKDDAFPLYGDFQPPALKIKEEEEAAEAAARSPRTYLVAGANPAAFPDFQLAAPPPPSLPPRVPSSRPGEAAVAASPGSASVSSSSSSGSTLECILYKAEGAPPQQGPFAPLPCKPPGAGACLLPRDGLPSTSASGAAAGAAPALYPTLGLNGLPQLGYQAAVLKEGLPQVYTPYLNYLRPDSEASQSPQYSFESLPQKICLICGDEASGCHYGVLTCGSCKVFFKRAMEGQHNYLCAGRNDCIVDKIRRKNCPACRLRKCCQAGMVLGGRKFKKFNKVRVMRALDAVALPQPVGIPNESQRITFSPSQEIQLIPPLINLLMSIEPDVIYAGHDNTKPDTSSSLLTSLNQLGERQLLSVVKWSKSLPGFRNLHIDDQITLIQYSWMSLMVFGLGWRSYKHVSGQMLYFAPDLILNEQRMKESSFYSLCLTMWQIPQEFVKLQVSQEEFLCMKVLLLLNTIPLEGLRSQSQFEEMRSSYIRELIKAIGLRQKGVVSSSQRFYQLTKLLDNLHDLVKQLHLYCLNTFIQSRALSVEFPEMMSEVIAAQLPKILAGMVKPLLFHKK
Protocol: The first test was on the progesterone receptors of rabbit uterus in which immature rabbits weighing about 1 kg received a cutaneous application of […] of estradiol and 5 days after treatment, the animals were sacrificed. The […] was removed, weighed and homogenized at 0° C. with a Potter Teflon-glass ina buffered solution. TS (Tris 10 mM, 0.25M Saccharose, HCl, pH 7.4) (1 g of tissue per 50 ml of TS). The homogenate was ultracentrifuged at 105,000 g×90 minutes at 0° C. The surnageant samples were incubated at a time at (t) 0° C. with a constant concentration (T) of tritiated product (R) which is 17,21-dimethyl-19-nor-Δ^4,9 -pregnadiene-3,20-dione in the presence of increasing concentrations from 0 to 2500×10^-9 M or cold R or cold progestenone or cold test compound. The concentration of bound tritiated R was measured for each incubate by absorption technique on dextran carbon.
as §1, §2, §3

| SMILES | relative affinity of the bond (ARL), Glucocorticoid, 2H [1] | relative affinity of the bond (ARL), Glucocorticoid, 24H [1] | relative affinity of the bond (ARL), Progestogen, 2H [2] | relative affinity of the bond (ARL), Progestogen, 24H [2] |
| --- | --- | --- | --- | --- |
| COc1ccc([C@H]2C[C@@]3(C)[C@@H](CC[C@@]3(O)c3ccc(OC)cc3)[C@@H]3CCC4=CC(=O)CCC4=C32)cc1 [Example 1, 11β,17α-bis-(4-methoxy-phenyl)-Δ^4,9-estradiene-17β-ol-3-one] | 94 | 68 | 48 | 259 |
| CN(C)c1ccc([C@H]2C[C@@]3(C)[C@@H](CC[C@@]3(O)c3ccccc3O)[C@@H]3CCC4=CC(=O)CCC4=C32)cc1 [Example 10, 11β-(4-dimethylamino-phenyl)-17α-(2-hydroxy-phenyl)-Δ^4,9-estradiene-17β-ol-3-one] | 106 | 112 | 47 | 189 |
| COc1ccccc1[C@]1(O)CC[C@H]2[C@@H]3CCC4=CC(=O)CCC4=C3[C@@H](c3ccc(N(C)C)cc3)C[C@@]21C [Example 11 (Product A), 11β-(4-dimethylamino-phenyl)-17α-(2-methoxy-phenyl)-Δ^4,9-estradiene-17β-ol-3-one] | 56 | 45 | 38 | 230 |
| COc1ccccc1[C@@]1(O)CC[C@H]2[C@@H]3CCC4=CC(=O)CCC4=C3[C@@H](c3ccc(N(C)C)cc3)C[C@@]21C [Example 11 (Product B), 11β-(4-dimethylamino-phenyl)-17β-(2-methoxy-phenyl)-Δ^4,9-estradiene-17α-ol-3-one] | 47 | 40 | 12 | 49 |
| COc1cccc([C@]2(O)CC[C@H]3[C@@H]4CCC5=CC(=O)CCC5=C4[C@@H](c4ccc(N(C)C)cc4)C[C@@]32C)c1 [Example 12 (Product A), 11β-(4-dimethylamino-phenyl)-17α-(3-methoxy-phenyl)-Δ^4,9-estradiene-17β-ol-3-one] | 90 | 76 | 24 | 131 |
| CN(C)c1ccc([C@H]2C[C@@]3(C)[C@@H](CC[C@@]3(O)c3ccccc3)[C@@H]3CCc4cc(O)ccc4[C@H]32)cc1 [Example 14, 11β-(4-dimethylamino-phenyl)-17α-phenyl-Δ^1,3,5(10) -estratriene-3,17β-diol] | 98 | 129 | 5 | 67 |

Results, then the compound that gave them:

| relative affinity of the bond (ARL), Glucocorticoid, 2H [1] | relative affinity of the bond (ARL), Glucocorticoid, 24H [1] | relative affinity of the bond (ARL), Progestogen, 2H [2] | relative affinity of the bond (ARL), Progestogen, 24H [2] | SMILES |
| --- | --- | --- | --- | --- |
| 133 | 97 | 33 | 35 | CN(C)c1ccc([C@H]2C[C@@]3(C)[C@@H](CC[C@@]3(O)c3ccc(O)cc3)[C@@H]3CCC4=CC(=O)CCC4=C32)cc1 [Example 6, 11β-(4-dimethylamino-phenyl)-17α-(4-hydroxy-phenyl)-Δ^4,9-estradiene-17β-ol-3-one] |
| 71 | 57 | 32 | 150 | CSc1ccc([C@H]2C[C@@]3(C)[C@@H](CC[C@@]3(O)c3ccc(N(C)C)cc3)[C@@H]3CCC4=CC(=O)CCC4=C32)cc1 [Example 7, 11β-(4-methylthio-phenyl)-17α-(4-dimethylamino-phenyl)-Δ^4,9-estraidene-17β-ol-3-one] |
| 39 | 40 | 22 | 110 | Cc1ccc([C@]2(O)CC[C@H]3[C@@H]4CCC5=CC(=O)CCC5=C4[C@@H](c4ccc(N(C)C)cc4)C[C@@]32C)cc1 [Example 9, 11β-(4-dimethylamino-phenyl)-17α-(4-methyl-phenyl)-Δ^4,9-estradiene-17β-ol-3-one] |
| 153 | 145 | 34 | 122 | CN(C)c1ccc([C@H]2C[C@@]3(C)[C@@H](CC[C@@]3(O)c3cccc(O)c3)[C@@H]3CCC4=CC(=O)CCC4=C32)cc1 [Example 13 (Product A), 11β-(4-dimethylamino-phenyl)-17α-(3-hydroxy-phenyl)-Δ^4,9-estradiene-17β-ol-3-one] |
| 76 | 63 | 1,9 | 1,7 | CN(C)c1ccc([C@H]2C[C@@]3(C)[C@@H](CC[C@]3(O)c3cccc(O)c3)[C@@H]3CCC4=CC(=O)CCC4=C32)cc1 [Example 13 (Product B), 11β-(4-dimethylaminophenyl)-17β-(3-hydroxy-phenyl)-Δ^4,9-estradiene-17α-ol-3-one] |
